Test: excess molar enthalpy (molar enthalpy of mixing); xn = mol fraction of the nth substance listed
Details: 100 kPa, Liquid, isothermal titration calorimetry

CCCCCCCOC [1-methoxyheptane] + CC#N
excess molar enthalpy [kcal/mol]
Details | 298.15 K | 308.15 K
x2 = 0.0304 | – | 0.0322
x2 = 0.0307 | 0.0291 | –
x2 = 0.059 | – | 0.0602
x2 = 0.0595 | 0.0573 | –
x2 = 0.0859 | – | 0.0845
x2 = 0.0867 | 0.0816 | –
x2 = 0.1114 | – | 0.106
x2 = 0.1123 | 0.103 | –
x2 = 0.1354 | – | 0.125
x2 = 0.1366 | 0.121 | –
x2 = 0.1799 | – | 0.156
x2 = 0.1813 | 0.151 | –
x2 = 0.22 | – | 0.181
x2 = 0.2216 | 0.175 | –
x2 = 0.2563 | – | 0.201
x2 = 0.2582 | 0.194 | –
x2 = 0.2894 | – | 0.216
x2 = 0.2914 | 0.209 | –
x2 = 0.3197 | – | 0.229
x2 = 0.3218 | 0.221 | –
x2 = 0.3732 | – | 0.248
x2 = 0.3754 | 0.239 | –
x2 = 0.4188 | – | 0.26
x2 = 0.4212 | 0.25 | –
x2 = 0.4583 | – | 0.268
x2 = 0.4607 | 0.258 | –
x2 = 0.5008 | – | 0.273
x2 = 0.5033 | 0.263 | –
x2 = 0.5372 | – | 0.275
x2 = 0.5396 | 0.264 | –
x2 = 0.5686 | – | 0.275
x2 = 0.571 | 0.264 | –
x2 = 0.596 | – | 0.273
x2 = 0.5983 | 0.263 | –
x2 = 0.6246 | – | 0.269
x2 = 0.6269 | 0.259 | –
x2 = 0.6494 | – | 0.265
x2 = 0.6517 | 0.256 | –
x2 = 0.6712 | – | 0.261
x2 = 0.6733 | 0.251 | –
x2 = 0.6934 | – | 0.255
x2 = 0.6955 | 0.246 | –
x2 = 0.7111 | 0.239 | 0.255
x2 = 0.7148 | 0.24 | 0.249
x2 = 0.7318 | 0.234 | 0.248
x2 = 0.7322 | 0.232 | 0.243
x2 = 0.7469 | 0.228 | 0.238
x2 = 0.7547 | 0.223 | 0.237
x2 = 0.7604 | 0.223 | 0.231
x2 = 0.7692 | – | 0.227
x2 = 0.7786 | 0.212 | –
x2 = 0.7954 | – | 0.213
x2 = 0.8041 | 0.199 | –
x2 = 0.8236 | – | 0.195
x2 = 0.8313 | 0.182 | –
x2 = 0.8414 | – | 0.182
x2 = 0.8485 | 0.171 | –
x2 = 0.86 | – | 0.168
x2 = 0.8664 | 0.157 | –
x2 = 0.8795 | – | 0.151
x2 = 0.8851 | 0.141 | –
x2 = 0.8999 | – | 0.131
x2 = 0.9047 | 0.123 | –
x2 = 0.9212 | – | 0.109
x2 = 0.9251 | 0.101 | –
x2 = 0.936 | – | 0.0913
x2 = 0.9391 | 0.0851 | –
x2 = 0.9512 | – | 0.0721
x2 = 0.9536 | 0.0668 | –
x2 = 0.9669 | – | 0.0506
x2 = 0.9686 | 0.0464 | –
x2 = 0.9832 | – | 0.0265
x2 = 0.9841 | 0.0235 | –

CCCCCOCCC [1-propoxypentane] + CC#N
Details | excess molar enthalpy [kcal/mol]
298.15 K, x2 = 0.031 | 0.041
298.15 K, x2 = 0.0602 | 0.0775
298.15 K, x2 = 0.0876 | 0.108
298.15 K, x2 = 0.1135 | 0.133
298.15 K, x2 = 0.1379 | 0.155
298.15 K, x2 = 0.183 | 0.191
298.15 K, x2 = 0.2236 | 0.219
298.15 K, x2 = 0.2604 | 0.24
298.15 K, x2 = 0.2938 | 0.256
298.15 K, x2 = 0.3243 | 0.27
298.15 K, x2 = 0.3781 | 0.288
298.15 K, x2 = 0.424 | 0.298
298.15 K, x2 = 0.4635 | 0.304
298.15 K, x2 = 0.5061 | 0.307
298.15 K, x2 = 0.5424 | 0.306
298.15 K, x2 = 0.5738 | 0.304
298.15 K, x2 = 0.6011 | 0.301
298.15 K, x2 = 0.6296 | 0.296
298.15 K, x2 = 0.6542 | 0.29
298.15 K, x2 = 0.6758 | 0.284
298.15 K, x2 = 0.6979 | 0.276
298.15 K, x2 = 0.7171 | 0.269
298.15 K, x2 = 0.734 | 0.262
298.15 K, x2 = 0.7491 | 0.255
298.15 K, x2 = 0.7625 | 0.248
298.15 K, x2 = 0.7644 | 0.242
298.15 K, x2 = 0.7829 | 0.232
298.15 K, x2 = 0.8022 | 0.221
298.15 K, x2 = 0.8226 | 0.207
298.15 K, x2 = 0.844 | 0.191
298.15 K, x2 = 0.8666 | 0.172
298.15 K, x2 = 0.8807 | 0.159
298.15 K, x2 = 0.8953 | 0.145
298.15 K, x2 = 0.9104 | 0.128
298.15 K, x2 = 0.926 | 0.11
298.15 K, x2 = 0.9421 | 0.089
298.15 K, x2 = 0.9531 | 0.0741
298.15 K, x2 = 0.9644 | 0.0577
298.15 K, x2 = 0.976 | 0.0399
298.15 K, x2 = 0.9879 | 0.0207
308.15 K, x2 = 0.0305 | 0.0427
308.15 K, x2 = 0.0592 | 0.0799
308.15 K, x2 = 0.0863 | 0.111
308.15 K, x2 = 0.1118 | 0.137
308.15 K, x2 = 0.136 | 0.16
308.15 K, x2 = 0.1806 | 0.197
308.15 K, x2 = 0.2208 | 0.225
308.15 K, x2 = 0.2572 | 0.247
308.15 K, x2 = 0.2904 | 0.265
308.15 K, x2 = 0.3207 | 0.278
308.15 K, x2 = 0.3742 | 0.297
308.15 K, x2 = 0.4199 | 0.309
308.15 K, x2 = 0.4594 | 0.315
308.15 K, x2 = 0.502 | 0.319
308.15 K, x2 = 0.5383 | 0.319
308.15 K, x2 = 0.5697 | 0.317
308.15 K, x2 = 0.6022 | 0.312
308.15 K, x2 = 0.6301 | 0.307
308.15 K, x2 = 0.6543 | 0.301
308.15 K, x2 = 0.6756 | 0.295
308.15 K, x2 = 0.6944 | 0.288
308.15 K, x2 = 0.7137 | 0.281
308.15 K, x2 = 0.7173 | 0.276
308.15 K, x2 = 0.7308 | 0.273
308.15 K, x2 = 0.7382 | 0.267
308.15 K, x2 = 0.7459 | 0.266
308.15 K, x2 = 0.7595 | 0.259
308.15 K, x2 = 0.7603 | 0.256
308.15 K, x2 = 0.7838 | 0.242
308.15 K, x2 = 0.8089 | 0.226
308.15 K, x2 = 0.8355 | 0.206
308.15 K, x2 = 0.8524 | 0.192
308.15 K, x2 = 0.8699 | 0.176
308.15 K, x2 = 0.8882 | 0.157
308.15 K, x2 = 0.9072 | 0.136
308.15 K, x2 = 0.9271 | 0.112
308.15 K, x2 = 0.9409 | 0.0938
308.15 K, x2 = 0.955 | 0.0737
308.15 K, x2 = 0.9695 | 0.0515
308.15 K, x2 = 0.9845 | 0.027

Source: the NIST ThermoML archive (doi:10.1021/acs.jced.5b00838)
